Publication PMC8259857, “Anti-tubercular activity and molecular docking studies of indolizine derivatives targeting mycobacterial InhA enzyme” (Journal of Enzyme Inhibition and Medicinal Chemistry, 2021)
≈ marks a conversion by molar mass, not a printed value.

Tested on: MDR-MTB (rifampicin and isoniazid-resistant MTB strain)
Assay: microbe, parasite or virus in culture
Type: cell-based, Mycobacterium tuberculosis
Conditions: MIC MDR-MTB versus MIC H37Rv

How did the “fold reduced MDR-MTB activity compared to H37Rv MTB strain” value turn out when CCOC(=O)c1cc(C(=O)c2ccc([N+](=O)[O-])cc2)n2ccccc12 [Compound 2d] was run?
Its value is 8 fold.

For CCOC(=O)c1c(C)c(C(=O)c2ccc(F)cc2)n2ccccc12 [Compound 3a], which “fold reduced MDR-MTB activity compared to H37Rv MTB strain” value is on record?
The value was 8 fold.

Same assay, conditions: Mycobacterium tuberculosis, read-out: MIC MDR-MTB

Which MIC does the source give for CCOC(=O)c1cc(C(=O)c2ccc([N+](=O)[O-])cc2)n2ccccc12 [Compound 2d] here?
The MIC was 64 µg/mL (≈ 189 µM).

With CCOC(=O)c1c(C)c(C(=O)c2ccc(F)cc2)n2ccccc12 [Compound 3a] as the compound, how does the MIC read?
Its MIC is 32 µg/mL (≈ 98.4 µM).

For CCOC(=O)c1c(C(=O)OCC)c2ccccn2c1C(=O)c1ccc(F)cc1 [Compound 4a, Diethyl-3-(4-fluorobenzoyl)indolizine-1,2-dicarboxylate], which MIC is on record?
The MIC was 16 µg/mL (≈ 41.7 µM).

With CCOC(=O)c1c(C(=O)OCC)c2ccccn2c1C(=O)c1ccc(Cl)cc1 [Compound 4b, Diethyl-3-(4-chlorobenzoyl)indolizine-1,2-dicarboxylate] as the compound, how does the MIC read?
The MIC was 16 µg/mL (≈ 40 µM).

CCOC(=O)c1c(C(=O)OCC)c2ccccn2c1C(=O)c1ccc([N+](=O)[O-])cc1 [Compound 4c, Diethyl-3-(4-nitrobenzoyl)indolizine-1,2-dicarboxylate] was tested. Which MIC did it give?
The MIC was 64 µg/mL (≈ 156 µM).

With NNC(=O)c1ccncc1 [Isoniazid, reference compound] as the compound, how does the MIC read?
Its MIC is ≥ 0.2 µg/mL.

With CO[C@H]1/C=C/O[C@@]2(C)Oc3c(C)c(O)c4c(O)c(c(/C=N/N5CCN(C)CC5)c(O)c4c3C2=O)NC(=O)/C(C)=C\C=C\[C@H](C)[C@H](O)[C@@H](C)[C@@H](O)[C@@H](C)[C@H](OC(C)=O)[C@@H]1C [Rifampicin, reference compound] as the compound, how does the MIC read?
The MIC was ≥ 1 µg/mL.

Same assay, conditions: isolates resistant to rifampicin (1 μg/mL) and isoniazid (0.2 μg/mL); NA: not active at the concentration range (0.2–64 μg/mL)

Which “MIC MDR-MTB” value does the source give for CCOC(=O)c1cc(C(=O)c2ccc(C)cc2)n2ccccc12 [Compound 2e] here?
The value was “completely abolished the activity”.

Which “MIC MDR-MTB” value does the source give for CCOC(=O)c1cc(C(=O)c2ccc(C#N)cc2)n2ccccc12 [Compound 2f] here?
Its value is “completely abolished the activity”.

Which “MIC MDR-MTB” value does the source give for CCOC(=O)c1c(C)c(C(=O)c2ccc(Cl)cc2)n2ccccc12 [Compound 3b] here?
Its value is “inactive”.

How did the “MIC MDR-MTB” value turn out when CCOC(=O)c1c(C)c(C(=O)c2ccc([N+](=O)[O-])cc2)n2ccccc12 [Compound 3d] was run?
Its value is “inactive”.
